Series [1] deals with Microglia. Kind of series: Neuroprotective activity against MPTP-induced apoptosis in mouse microglia assessed as reduction in apoptotic cells in brain tissue at 15 mg/kg, ip administered with compound once daily for 2 weeks followed by MPTP addition on day 8 and measured after 2 weeks of compound addition by TUNEL staining based immunofluorescence analysis. In kind it is functional, organism-based.

Series [2] relates to Microglia. The series is described as follows: Neuroprotective activity against MPTP-induced apoptosis in mouse microglia assessed as increase in Caspase3 expression in brain tissue at 15 mg/kg, ip administered with compound once daily for 2 weeks followed by MPTP addition on day 8 and measured after 2 weeks of compound addition by Western blot analysis. The class given is functional, organism-based.

Series [3] has as its system BV-2. The series is described as follows: Induction of apoptosis in mouse LPS-induced BV-2 cells assessed as increase in Bcl-2 expression at 5 to 10 uM pretreated for 18 hrs followed by LPS-stimulation and measured after 6 hrs by Western blot analysis. The class given is functional, cell-based. The note with it: dose 5-10 µM, time 24.0 hrs. On the technique in general: Immunoblotting shows a protein as a band on a membrane.

Series [4] relates to BV-2. Kind of series: Induction of apoptosis in LPS-induced mouse BV-2 cells assessed as increase in BAX expression at 5 to 10 uM pretreated for 18 hrs followed by LPS-stimulation and measured after 6 hrs by Western blot analysis. The class given is functional, cell-based. Conditions: dose 5-10 µM, time 24.0 hrs.
Series [5] has as its system BV-2. The series is described as follows: Induction of apoptosis in LPS-induced mouse BV-2 cells assessed as increase in Caspase3 mRNA expression at 5 to 10 uM pretreated for 18 hrs followed by LPS-stimulation and measured after 6 hrs by qRT-PCR analysis. The note with it: dose 5-10 µM, time 24.0 hrs. In kind it is functional, cell-based. On the technique in general: Real-time PCR tracks product formation cycle by cycle.

The test system of series [6] is BV-2. The series is described as follows: Induction of apoptosis in LPS-induced mouse BV-2 cells assessed as increase in cleaved Caspase-3 expression at 5 to 10 uM pretreated for 18 hrs followed by LPS-stimulation and measured after 6 hrs by immunofluorescence analysis. The note with it: dose 5-10 µM, time 24.0 hrs. In kind it is functional, cell-based.
Series [7] has as its system Microglia. The series is described as follows: Neuroprotective activity against MPTP-induced apoptosis in mouse microglia assessed as increase in BAX expression in brain tissue at 15 mg/kg, ip administered with compound once daily for 2 weeks followed by MPTP addition on day 8 and measured after 2 weeks of compound addition by Western blot analysis. In kind it is functional, organism-based.

The test system of series [8] is BV-2. Kind of series: Inhibition of LPS-induced ROS production in mouse BV-2 cells at 5 uM pretreated for 18 hrs followed by LPS-stimulation and measured after 6 hrs by fluorescence microscopic analysis. In kind it is functional, cell-based. Conditions: time 24.0 hrs.
The test system of another series is Mus musculus. Kind of series: Anti-parkinson activity in MPTP-induced C57BL/6J mouse model at 15 to 35 mg/kg, ip administered with compound once daily for 2 weeks followed by MPTP addition on day 8 and measured after 2 weeks of compound addition by rotarod test. Conditions: dose 15-35 mg/kg. In kind it is functional, organism-based. In general terms: The rotarod test checks motor coordination on a turning rod.

In series [9] the test system is BV-2. The series is described as follows: Induction of apoptosis in LPS-induced mouse BV-2 cells assessed as increase in BAX mRNA expression at 5 to 10 uM pretreated for 18 hrs followed by LPS-stimulation and measured after 6 hrs by qRT-PCR analysis. The note with it: dose 5-10 µM, time 24.0 hrs. In kind it is functional, cell-based.
Series [10] relates to BV-2. Kind of series: Cytotoxicity against mouse BV-2 cells assessed as reduction in cell viability at 5 uM pretreated for 18 hrs followed by LPS-stimulation and measured after 6 hrs by MTT assay. In kind it is toxicity, cell-based. The note with it: bv-2, 24 h.

Calls of active or inactive are those of the source. No cut-off for these calls is given here.

The values below come from ChEMBL document CHEMBL5321235, “Design, synthesis, and SAR study of novel flavone 1,2,4-oxadiazole derivatives with anti-inflammatory activities for the treatment of Parkinson's disease” (Eur J Med Chem, 2023).

Take `Cc1cccc(-c2noc(-c3cccc4c(=O)c(C)c(-c5ccccc5)oc34)n2)c1`: the result in the series with Microglia [1], in the series with Microglia [2], with BV-2 [3], in the series on BV-2 [4], with BV-2 [5] and in the series on BV-2 [6] was Active. Besides, the result in the series on Microglia [7], in the series on Mus musculus and in the series with BV-2 [9] was Active. In addition, the inhibition result in the series with BV-2 [8] is “Active”. The Activity entry with BV-2 [10] is given as “Non-Toxic”.
